Laboratory results published in US20260256756A1, “USE OF PIPERIDINE ALKENE COMPOUND IN PREPARATION OF DRUG FOR TREATING CANCER” (JIANGSU HANSOH PHARMACEUTICAL GROUP CO., LTD., priority 2023, published 2026).

Assays:
[1] = tested on: human ovarian cancer OV-10-0060 xenograft tumor; assay: Subcutaneous xenograft tumor model of human ovarian cancer OV-10-0060; format: in vivo, BALB/c nude mice
Source text: • 1. Experimental objective: To evaluate the in vivo efficacy of the compound in a subcutaneous xenograft tumor model of human ovarian cancer OV-10-0060 in nude mice. • 2. Reagent • HPMC (A1921068, Shanghai Aladdin Biochemical Technology Co., Ltd.), DMEM medium (11995-065, Gibco) • 3. Experimental operations and data processing • 3.1 Animals: BALB/c nude mice, 6-8 weeks old, female, purchased from the Laboratory Animal Business Department of Shanghai Institute of Planned Parenthood Research. • 3.2 Animal modeling • Tumor tissues were harvested from ovarian cancer xenograft model OV-10-0060 tumor-bearing mice and cut into tumor fragments with a diameter of 2-3 mm, which were subcutaneously inoculated into the right anterior scapula region of BALB/c nude mice. • 3.3 Tumor measurement and grouping in tumor-bearing mice • Prior to drug administration, all animals were weighed, and tumor volumes were measured using a vernier caliper. The tumor volume was calculated as: tumor volume (mm^3)=length (mm)×width (mm)×width (mm)/2. According to the body weight of tumor-bearing mice and the size of the tumor, the mice were grouped by random grouping. • 3.4 Administration in tumor-bearing mice • According to the grouping results, the test drug was started to be administered (administration method: oral administration; administration volume: 10 mL/kg; administration frequency: once/day; administration cycle: 28 days; vehicle: 0.5% HPMC). Tumor measurement and weighing were performed twice a week after starting administration of test drugs. The animals were euthanized at the end of the experiment. • 3.5 Data processing • Data processing was performed using software such as GraphPad Prism. The tumor inhibitory efficacy of the compound was evaluated by TGI (%) and ΔT/ΔC (%). ΔT/ΔC (%)=(T−T0)/(C−C0)×100, where T and C are the tumor volumes of the treatment group and the vehicle control group at the end of the experiment, respectively, and T0 and C0 are the tumor volumes of the treatment group and the vehicle control group at the beginning of the experiment, respectively. Tumor growth inhibition (TGI) (%)=100−ΔT/ΔC (%). Tumor growth inhibition (TGI) (%)=100−(T−T0)/T0×100 when tumor regression occurs • 4. Experimental results and conclusions

[2] = tested on: human pancreatic cancer cell line Capan-1 xenograft tumor; assay: Subcutaneous xenograft tumor model of human pancreatic cancer cell line Capan-1; format: in vivo, BALB/c nude mice; details: Capan-1, 100 mg/kg oral once/day
Source text: • 1. Experimental objective: To evaluate the in vivo efficacy of compound 1 in a subcutaneous xenograft tumor model of human pancreatic cancer cell line Capan-1 in nude mice. • 2. Reagent • IMDM medium (30-2005, ATCC) and fetal bovine serum (FBS) (35-081-CV, Corning) • DPBS (21-031-CVR, Corning) and Matrigel (354234, Corning) • HPMC (H02J10D78204, Shanghai Yuanye Bio-Technology Co., Ltd.) • Trypsin-EDTA (25200-072, Gibco), penicillin and streptomycin (MA0110, Dalian Meilun Biotechnology Co., Ltd.) • 3. Experimental operations and data processing • 3.1 Animals: • BALB/c nude mice, 6-8 weeks old, female, purchased from Jiangsu GemPharmatech Co., Ltd. • 3.2 Cell culture and cell suspension preparation • a. A vial of Capan-1 cells was taken from a cell bank, the cells were thawed with IMDM medium (IMDM+20% FBS), and the thawed cells were placed in a cell culture flask (with the cell type, date, the name of the culture operator, etc., being marked on the wall of the flask), which were placed in a CO2 incubator for culturing (wherein the temperature of the incubator was 37° C., and the CO2 concentration was 5%). • b. The cells were passaged once a week, and after passage, the cells were placed in the CO2 incubator to continue the culture. This process was repeated until the cell number met the requirements for in vivo efficacy. • c. The cultured cells were collected, counted using a full-automatic cell counter, and resuspended with PBS on the basis of the counting results to prepare a cell suspension (at a density of 5×10^7/mL). An equal volume of Matrigel was added to the cell suspension, and the resulting mixture was mixed uniformly and then placed in an ice box for later use. • 3.3 Cell inoculation • a. Before inoculation, the nude mice were marked with disposable universal ear tags for mice and rats. • b. At the time of inoculation, the cell suspension was mixed uniformly, 0.2-1 mL of the cell suspension was aspirated using a 1 mL syringe with air bubbles expelled, and the syringe was then placed on an ice bag for later use. • c. […] Tumor was measured on days 4-7 after inoculation depending on the tumor growth, and the tumor size was calculated.
tumor volume (mm^3)=length (mm)×width (mm)×width (mm)/2 Tumor volume calculation: • b. […] The tumor inhibitory efficacy of the compound was evaluated by TGI (%) and ΔT/ΔC (%). ΔT/ΔC (%)=(T−T0)/(C−C0)×100, where T and C are the tumor volumes of the treatment group and the vehicle control group at the end of the experiment, respectively, and T0 and C0 are the tumor volumes of the treatment group and the vehicle control group at the beginning of the experiment, respectively. […]

[3] = OV-10-0060, 10 mg/kg oral once/day, Day 27
[4] = OV-10-0060, 100 mg/kg oral once/day, Day 27

| Compound | Tumor volume (Mean ± SEM) ([1]; OV-10-0060, 10 mg/kg oral once/day, Day 0) | T/C [1, 3] | TGI [1, 3] | Tumor volume (Mean ± SEM) [1, 3] | Tumor volume (Mean ± SEM) ([1]; OV-10-0060, 100 mg/kg oral once/day, Day 0) | T/C [1, 4] | TGI [1, 4] | Tumor volume (Mean ± SEM) [1, 4] | Tumor volume (Mean ± SEM) ([2]; Day 0) | T/C ([2]; Day 28) | TGI ([2]; Day 28) | Tumor volume (Mean ± SEM) ([2]; Day 28) |
| --- | --- | --- | --- | --- | --- | --- | --- | --- | --- | --- | --- | --- |
| CCc1cc2ncc(CN3CCN(c4ccc(C(=O)NC)nc4)CC3)cc2[nH]c1=O [AZD5305] | 124 ± 4 mm^3 | 61.08% | 41.19% | 1,378 ± 99 mm^3 | – | – | – | – | – | – | – | – |
| O=C(c1cc(Cc2n[nH]c(=O)c3ccccc23)ccc1F)N1CCN(C(=O)C2CC2)CC1 [Olaparib] | – | – | – | – | 124 ± 4 mm^3 | 79.24% | 22.00% | 1,787 ± 158 mm^3 | 164 ± 13 mm^3 | 86.27% | 14.39% | 724 ± 82 mm^3 |
